Experiments:
[1] = system: STAT3 reporter HeLa stable cell line; test: STAT3 luciferase reporter gene assay; type: cell-based; details: pretreatment before oncostatin M stimulation (Figure S10)
Description: STAT3 reporter HeLa stable cell lines were incubated in a 96-well microplate for 24 hours. Cells were pretreated with test compounds for 1 hour, and 10 ng/ml (w/v) of oncostatin M were applied and incubated for 4 hours. Cells were washed with medium not supplemented with phenol red, and Steady-Glo® reagent (Promega) was applied. After 5 min incubation, the signals were detected by ARVO Light 1420 (PerkinElmer Life Sciences). The relative signal intensity was calculated in each well as the ratio for the mean signal of vehicle.

STAT5b(136–703) = target: T1, STAT5b(136–703) (Homo sapiens, UniProt P51692); test: Multiplexed Alpha assay, STAT5b-SH2 binding (AlphaScreen); details: multiplexed binding assay; mean and SEM, three independent experiments; read-out: IC50 STAT5b-SH2 binding (STAT5b)
T1 construct: 136 to 703 of human STAT5b; 6×His-tag (N); made in house; host or cells: E. coli BL-21 Star (DE3) pLysS co-transformed with pBirAcm
T1 sequence (P51692 136-703): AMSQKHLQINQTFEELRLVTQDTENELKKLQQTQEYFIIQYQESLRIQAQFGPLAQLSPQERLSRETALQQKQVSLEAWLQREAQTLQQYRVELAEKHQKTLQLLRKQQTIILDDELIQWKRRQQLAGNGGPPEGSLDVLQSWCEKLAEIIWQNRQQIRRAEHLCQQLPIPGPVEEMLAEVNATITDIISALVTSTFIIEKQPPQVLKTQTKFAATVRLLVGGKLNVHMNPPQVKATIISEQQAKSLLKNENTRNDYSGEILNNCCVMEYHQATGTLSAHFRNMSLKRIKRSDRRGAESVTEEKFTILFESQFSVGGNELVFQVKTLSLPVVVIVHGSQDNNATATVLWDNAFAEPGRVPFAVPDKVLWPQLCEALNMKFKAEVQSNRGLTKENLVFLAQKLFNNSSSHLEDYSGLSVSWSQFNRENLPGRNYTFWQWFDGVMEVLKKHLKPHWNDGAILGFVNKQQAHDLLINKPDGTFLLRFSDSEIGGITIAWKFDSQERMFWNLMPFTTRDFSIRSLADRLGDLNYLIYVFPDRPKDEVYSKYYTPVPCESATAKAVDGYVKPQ
Description: (§1) Both AlphaLISA and AlphaScreen are bead-based nonradioactive binding assay systems for detecting biomolecular interactions in a microplate format. The binding of the biological partners brings the donor and acceptor beads into close proximity, and AlphaLISA produces a specific signal around 615 nm and AlphaScreen emits a broad signal between 520 and 620 nm. The assays were performed in a final reaction volume of 25 µL of the assay buffer, which contained 10 mM HEPES-NaOH (pH 7.4), 50 mM NaCl, 1 mM EDTA (pH 8.0), 0.1% (w/v) NP-40, and 10 ng/µL (w/v) BSA in a 96-well microplate at 25°C. The labeled phosphotyrosyl (pTyr, pY) peptide probes were DIG-GpYLPQTV and FITC-GpYLVLDKW for STAT3 and STAT5b, respectively. In the single assay for STAT3 binding, 100 nM STAT3(136–705) protein was incubated with a test compound dissolved in DMSO for 30 min, and 1.0 nM DIG-GpYLPQTV was added and the mixture was incubated for 90 min. Streptavidin-coated donor beads (0.25 µg/well) and anti-DIG AlphaLISA acceptor beads (0.25 µg/well) were added and incubated for 90 min before the signals were measured with EnVison Xcite (PerkinElmer Life Sciences). In the single assay for STAT5b binding, 20 nM STAT5b(136–703) was incubated with a test compound for 30 min, and 1.0 nM FITC-GpYLVLDKW was added and incubated for 90 min. Streptavidin-coated donor beads (0.25 µg/well) and anti-FITC AlphaScreen acceptor beads (0.25 µg/well) were added and incubated for 90 min before the signals were measured with EnVison Xcite. In the multiplexed assay, 100 nM STAT3(136–705) and 20 nM STAT5b(136–703) were incubated with a test compound for 30 min, and 1.0 nM DIG-GpYLPQTV and 1.0 nM FITC-GpYLVLDKW were added and incubated for 90 min. Streptavidin-coated donor beads (0.50 µg/well), anti-DIG AlphaLISA (0.25 µg/well), and anti-FITC AlphaScreen acceptor beads (0.25 µg/well) were added and incubated for 90 min before the signals were measured with EnVison Xcite. AlphaLISA and AlphaScreen signals for measuring STAT3- and STAT5b-SH2 binding, respectively, can be separately measured by using a dysprosium 572 nm and a europium 615 nm narrow bandwidth filter. In inhibitory assays, these signals for the bound state and the free state were represented as 0% and 100% inhibition, respectively. The bound state was measured by incubating the labeled peptide and the protein without test compounds. The free state was measured by incubating the same mixture with an additional 10 µM non-labeled peptide contained phosphorylated tyrosine, which competitively binds to its corresponding protein. The IC50 value was calculated by Graph pad prism 4.0. The mean and the standard error (SEM) of IC50 values were determined from three independent experiments. The Z’ value was calculated using the equation Z’ = 1–(3×SD_bound +3×SD_free)/(Signal_bound – Signal_free). STAT1 and Grb2 binding assays were performed as described in previous report. In the assays for selectivity of Compound 1, 100 pM biotinylated DIG or 100 pM biotinylated FITC was incubated with 10 µM or 30 µM Compound 1 for 30 min. Streptavidin-coated donor beads (0.25 µg/well) and anti-DIG AlphaLISA acceptor beads (0.25 µg/well) or anti-FITC AlphaScreen acceptor beads (0.25 µg/well) were added and incubated for 90 min before the signals were measured with EnVison Xcite.

[2] = system: STAT3 nuclear translocation in HeLa cells; test: STAT3 nuclear translocation assay in oncostatin M-stimulated HeLa cells; type: cell-based; details: for Fluorescent intensity of STAT3 in the nuclei, of the vehicle treatment: 1 h pretreatment, oncostatin M 30 ng/mL 10 min, HeLa
Description: The Cellomics STAT3 Activation Kit (Thermo Scientific) was used for the nuclear translocation assay. HeLa cells were incubated in a 96-well microplate for 24 h. Cells were pretreated with the test compounds for 1 hour, and 30 ng/mL (w/v) of oncostatin M was applied and the mixture was incubated for 10 min. The subsequent procedures were performed according to the manufacturer’s instructions. The cells were scanned with an ArrayScan VTI reader (Thermo Scientific), and analyzed with the Cytoplasm to Nucleus Translocation Application. The mean fluorescent values in the nuclei were calculated. The signals for vehicle treatment and no treatment (without oncostatin M) were represented as 100% and 0%, respectively, and the relative signal intensity was also calculated.

STAT3(136–705) = target: T2, STAT3(136–705) (Homo sapiens, UniProt P40763); test: Single STAT3-SH2 binding assay (AlphaLISA); details: non-multiplexed single assay
T2 construct: amino acids 136 to 705 of human STAT3 and 136 to 703 of human STAT5b; 6×His-tag (N); made in house; host or cells: E. coli BL-21 Star (DE3) pLysS co-transformed with pBirAcm
T2 sequence (P40763 136-705): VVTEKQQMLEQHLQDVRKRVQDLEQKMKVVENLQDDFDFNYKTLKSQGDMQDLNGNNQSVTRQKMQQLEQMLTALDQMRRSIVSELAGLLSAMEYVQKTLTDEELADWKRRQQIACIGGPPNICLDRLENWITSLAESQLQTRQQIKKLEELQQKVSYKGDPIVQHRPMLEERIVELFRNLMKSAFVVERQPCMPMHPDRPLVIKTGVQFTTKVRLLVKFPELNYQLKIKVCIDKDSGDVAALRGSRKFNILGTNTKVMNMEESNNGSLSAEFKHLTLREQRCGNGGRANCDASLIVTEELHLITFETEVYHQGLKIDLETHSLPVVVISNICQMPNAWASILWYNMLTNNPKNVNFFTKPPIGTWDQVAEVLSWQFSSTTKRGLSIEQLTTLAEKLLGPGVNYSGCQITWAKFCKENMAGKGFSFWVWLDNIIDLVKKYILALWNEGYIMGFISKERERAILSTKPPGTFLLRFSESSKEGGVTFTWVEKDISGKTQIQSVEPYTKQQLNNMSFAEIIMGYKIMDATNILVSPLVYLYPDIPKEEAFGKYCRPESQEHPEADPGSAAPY
Description: as §1

O=C1C=CC(=NC2=C(Cl)C(=O)c3ccccc3C2=O)C=C1 [Compound 1] was tested, and the “Effect on STAT3 transcriptional activity” value [1] was “reduced the STAT3 transcriptional activity in a dose-dependent manner”, the IC50 (STAT5b(136–703)) was 11 ± 0.27 µM and the “Fluorescent intensity of STAT3 in the nuclei, of the vehicle treatment” value ([2]; 60 µM) was 51%. The “Fluorescent intensity of STAT3 in the nuclei, of the vehicle treatment” value ([2]; 100 µM) was 31%, the “Effect on STAT3 nuclear translocation” value ([2]; HeLa cells, pretreatment before oncostatin M (Figure 6, Figure S9)) was “reduced the STAT3 nuclear translocation in a dose-dependent manner” and the IC50 (STAT3(136–705)) was 3.8 µM.
